System: B16F10 melanoma tumors
Test: In vivo treatment of established B16F10 melanoma tumors, single intratumoral injection
Conditions: 100 μg DOX, C57B1/6 mice
Protocol: FIG. 7 illustrates in vivo tumor regression mediated by doxobucin-loaded nanoparticles. 5×10^6 Gaussia-luciferase-expressing B16F10 melanoma cells were subcutaneously injected into left flank of C57B1/6 mice. Tumors were allowed to establish and grow to ˜0.5 cm in diameter, and mice were divided randomly into groups of 8 per condition: group 1, no treatment (PBS); group 2, treated with free doxorubicin (100 μg DOX); group 3, treated with doxorubicin-imbedded liposome (100 μg DOX); and group 4, treated with doxorubicin-imbedded nucleic acid nanoparticle (100 μg DOX). Treatments were administered by intratumoral injection in 250 μl volumes. Tumors were measured every day with calipers in two dimensions. Tumor growth curves are plotted as the mean tumor area±standard deviation. Shown at bottom left is bioluminescence imaging of a mouse with an untreated tumor (left) and a mouse that received an injection of doxorubicin-imbedded nucleic acid nanoparticles (right). Animals were sacrificed after the last measurement and the tumors were excised and fixed for histology section. […]

## COc1cccc2c1C(=O)c1c(O)c3c(c(O)c1C2=O)C[C@@](O)(C(=O)CO)C[C@@H]3O[C@H]1C[C@H](N)[C@H](O)[C@H](C)O1 [free doxorubicin, Doxorubicin]
  effect on tumor growth relative to saline-injected control animals: no effect on tumor growth
